The values below come from patent US20030108526A1, “Microorganisms for use in the measurement of environmental factors” (priority 2001, published 2003).

One experiment relates to ZmHK1. The experiment in a line: Cytokinin sensor function and sensitivity of ZmHK1 in E. coli KMI001 (colony color on LAGX agar). Format: cell-based, maize. The source says:
The protein coding region of pZmHK1 was amplified by PCR and ligated to the BamHI/BSalI site of pIN-IIIΔEH plasmid. Primer sequences used in the PCR amplification are as described below.
Plasmid pIN-IIIΔEH has a promoter that constitutively directs weak expression of a foreign gene in E. coli. The resultant plasmid was designated pIN-III-ZmHK.
The constructed plasmid was transformed into E. coli KMI001 [ΔrcsC, cps::lacZ]. This E. coli strain is a strain in which cps gene involved in polysaccharide synthesis and a binary regulatory factor consisting of rcsC-rcsB (an expression regulatory system for cps) are partially modified. Specifically, sensor histidine kinase gene rcsC is deleted, and β-galactosidase (a marker gene) is inserted downstream of the promoter of cps gene. The resultant transformant was cultured in 2 ml of LAG liquid medium (1% Bacto tryptone, 0.5% Bacto yeast extract, 1% NaCl, 40 mM glucose, 50 mM phosphate buffer, pH 7.0) overnight at 25° C. The resultant culture broth was centrifuged and the supernatant was discarded. The E. coli cell pellet was washed twice in sterilized water and suspended in 2 ml (final volume) of sterilized water. This suspension was spotted at two points each on LAGX agar medium (1% Bacto tryptone, 0.5% Bacto yeast extract, 1% NaCl, 40 mM glucose, 50 mM phosphate buffer, pH 7.0, 80 μg/ml X-gal, 1.5% agarose) containing 1 μM trans-zeatin (t-zeatin) and on LAGX agar medium not containing t-zeatin, and cultured overnight (12 hr) at 25° C. The next day, the color of each colony was observed.
E. coli suspension was prepared in the same manner as in Example 4. Subsequently, the suspension was spotted on LAGX agar medium containing t-zeatin at varied concentrations from 0 nM to 1000 nM, and cultured overnight (12 hr) at 25° C. The next day, the color of each colony was observed.

Another experiment concerns the target AHK4 (Arabidopsis thaliana, UniProt Q9C5U0). Conditions: experimental conditions of Example 4; Plant Cell Physiol 2001, 42: 107-113; cited from earlier work.
Experiment [1] has as its system cps::lacZ (β-galactosidase) expression in E. coli KMI001. The experiment in a line: Examination of biosensor function: IPTG-induced sensor E. coli or its supernatant with receptor-transferred marker E. coli. Conditions: 1 mM IPTG, Examples 6 and 7. It counts as cell-based, Escherichia coli.
Source text: (§1) The next day, the color of each colony was observed.
as §1

Chain of AHK4 (Q9C5U0 whole entry): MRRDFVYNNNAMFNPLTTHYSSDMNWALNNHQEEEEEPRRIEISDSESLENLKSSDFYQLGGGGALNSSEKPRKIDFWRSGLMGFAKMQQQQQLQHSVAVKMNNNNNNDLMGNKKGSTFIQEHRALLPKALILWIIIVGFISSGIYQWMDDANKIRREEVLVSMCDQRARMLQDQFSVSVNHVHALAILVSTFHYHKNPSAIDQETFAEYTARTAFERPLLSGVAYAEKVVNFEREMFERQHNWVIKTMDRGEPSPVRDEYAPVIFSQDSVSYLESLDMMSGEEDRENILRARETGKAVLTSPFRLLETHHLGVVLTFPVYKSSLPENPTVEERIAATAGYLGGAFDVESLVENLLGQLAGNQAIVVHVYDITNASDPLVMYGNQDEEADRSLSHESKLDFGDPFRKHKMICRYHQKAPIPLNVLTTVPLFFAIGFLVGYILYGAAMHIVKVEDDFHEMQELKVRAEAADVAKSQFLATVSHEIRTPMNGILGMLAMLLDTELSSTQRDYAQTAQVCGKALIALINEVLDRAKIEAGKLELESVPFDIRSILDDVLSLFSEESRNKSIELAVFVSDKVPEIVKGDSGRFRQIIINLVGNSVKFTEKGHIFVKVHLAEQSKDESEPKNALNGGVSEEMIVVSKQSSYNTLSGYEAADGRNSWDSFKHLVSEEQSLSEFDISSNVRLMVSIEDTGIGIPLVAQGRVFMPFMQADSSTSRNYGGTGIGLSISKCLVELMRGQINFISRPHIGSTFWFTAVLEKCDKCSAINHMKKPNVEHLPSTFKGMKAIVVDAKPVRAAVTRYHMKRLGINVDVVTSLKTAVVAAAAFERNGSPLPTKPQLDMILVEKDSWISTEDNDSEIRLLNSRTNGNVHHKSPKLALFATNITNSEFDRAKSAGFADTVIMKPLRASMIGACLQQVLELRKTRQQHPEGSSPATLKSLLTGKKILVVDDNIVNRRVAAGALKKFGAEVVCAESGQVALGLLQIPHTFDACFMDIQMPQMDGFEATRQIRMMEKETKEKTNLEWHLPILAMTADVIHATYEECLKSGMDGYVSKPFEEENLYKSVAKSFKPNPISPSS

Turning to `C/C(=C\CNc1ncnc2nc[nH]c12)CO` [t-zeatin, trans-zeatin], the “β-galactosidase expression of ZmHK1-transferred E. coli in response to the cytokinin in the medium” value in the experiment with ZmHK1 (1 μM t-zeatin in LAGX agar, 12 hr, 25° C.) is on record as “expressed β-galactosidase”. The “t-zeatin concentration to which ZmHK1-transferred E. coli responds” value in the experiment on ZmHK1 (LAGX agar with 0 nM to 1000 nM t-zeatin, 12 hr, 25° C.) is at most 10 µM. Further, at AHK4, the “lowest t-zeatin concentration to which AHK4-transferred E. coli is able to respond” value is on record as “approx. 50 nM”.
With “AHK4: Arabidopsis thaliana cytokinin receptor (sensor protein)”, the “Biosensor response (blue colony color) of receptor-transferred transformant to IPTG” value in experiment [1] is on record as “did not present a blue color”.

B1: ZmHK1: maize cytokinin receptor, 974 amino acids, SEQ ID NO: 2 (protein)
chain: MGGKYRAARTKRWWRGLAAAGWVLTAVVCSAVMHWTLRRDSMDRAEERLVSMCEERARMLQEQFGVTVNHVHAIAILISTFNFEKSPPAIDQDTFAKYTARTSFERPLLNGVAFAQRVFHHEREMFESQQGWVMNTMQREPAPPQVEYAPVIFSQDTVSYLARIDMMSGEEDRENIFRARTTGKAVLTNPFRLLGSNHLGVVLTFAVYRPDLPADASVEQRVEATIGYLGGAFDVESLVENLLSKLAGNQDIVVNVYDVTNASDAMVLYGPSSLDEQVPFLHVSMLDFGDPFRKHEMRCRYRQKLPMPWSAITNPLGTFVIWMLLGYSIAAAYSRYDKVTEDCRKMEELKTQAEAADVAKSQFLATASHEIRTPMNGVLGMLDMLLGTDLTMTQKDYAQTAQMCGRALITLINDVLDRAKIEAGKLELEAVPFDLRSLMDDVVSLFSSKSREKCIELAVFVCDNVPKVVIGDPWRFRQILTNLVGNAVKFTERGHVFVRVCLAENSNMEANQVLHGAMNGKGGRVESTANGAFNTLSGFEAADRRNSWQYFKLLLSDKESLLDDLESENSNQSDSDRVTLAISIEDTGVGIPLQAQDRVFTPFMQADSSTSRNYGGTGIGLSISKCLAELMGGQISFTSHPSVGSTFTFSATLKHSHKDISGDSSRSLTEALPTAFKGMKAILVDGRPVRSAVTRYHLKRLGILLQVVNNMNAVVKAFPGQNGAAGSREKASILFIESDFWRPETDVQLLNHLREQKNGQLSDGHKVVLLVTSEADKDKYGSIFDIVMCKPIRASTIASSIQQLLKVEIAERKDNQNRPSFLRSLLVGKNILVVDDNKVNLRVAAAALKKYGANVSCVESGKDAISLLQPPHRFDACFMDVQMPEMDGFEATGQIRQMELKANEERKNKLASIEGSTTAEYHLPVLAMTADVIQATYEECIKSGMDGYVSKPFDEEQLYQAVSRLVVGTTDSAV
modifications: Zea mays
Consider B1, for which the “ability to perceive cytokinins compared to that of AHK4” value in the experiment with ZmHK1 is on record as “approximately 10 fold”. Further, in the experiment with ZmHK1 (FIG. 1, 1 μM t-zeatin), the “color development of transferred E. coli spot compared with AHK4-transferred E. coli spots” value is given as “more intensive color development”. For the same molecule, the “Biosensor response (blue colony color) of receptor-transferred transformant to IPTG” value in experiment [1] is recorded as “discriminated the presence or absence of a specific substance”.
